Measurements reported in PubChem BioAssay (NCI).
“And” between values parts separate entries of the source, which are not always exact repeats. Identical values can stand only once.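 Dose response: 5 concentrations. Exposure: 48 h. Format: 96-well plates. Endpoint: linear interpolation; highest concentration if not reached. GI50: concentration for 50% inhibition of growth. Definition used: TGI = concentration required for complete inhibition of growth.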

Assays:
Test in all cases: NCI-60 cell line screen, 48 h
786-0 renal = tested on: 786-0 renal
A498 renal = tested on: A498 renal
ACHN renal = tested on: ACHN renal
KM20L2 colon = tested on: KM20L2 colon
NCI-H226 lung = tested on: NCI-H226 lung
UO-31 renal = tested on: UO-31 renal
DMS 273 small cell lung = tested on: DMS 273 small cell lung
MCF7 breast = tested on: MCF7 breast
SK-MEL-5 melanoma = tested on: SK-MEL-5 melanoma
T-47D breast = tested on: T-47D breast

CC(C(=O)c1ccccc1)C1(O)C(=O)Nc2ccc(Cl)cc21 (stereo unspecified)
TGI (786-0 renal): > 100 µM | TGI (A498 renal): > 100 µM | TGI (ACHN renal): > 100 µM | TGI (KM20L2 colon): > 100 µM | TGI (NCI-H226 lung): > 100 µM | TGI (UO-31 renal): 89.7 µM

Cc1c(N)nc(C(CC(N)=O)NCC(N)C(N)=O)nc1C(=O)NC(C(=O)NC(C)C(O)C(C)C(=O)NC(C(=O)NCCc1nc(-c2nc(C(=O)NCCCNC(C)c3ccccc3)cs2)cs1)C(C)O)C(OC1OC(CO)C(O)C(O)C1OC1OC(CO)C(O)C(OC(N)=O)C1O)c1cnc[nH]1 (stereo unspecified)
GI50 (786-0 renal): 1.38 µM | TGI (786-0 renal): 43.7 µM and 33.9 µM | TGI (A498 renal): 27.5 µM | TGI (ACHN renal): 0.189 µM and 1.48 µM | TGI (DMS 273 small cell lung): 4.95 µM | TGI (KM20L2 colon): 50 µM | TGI (MCF7 breast): > 100 µM | GI50 (NCI-H226 lung): 1.59 µM | TGI (NCI-H226 lung): 2.97 µM and 24.8 µM | GI50 (SK-MEL-5 melanoma): 1.51 µM | TGI (SK-MEL-5 melanoma): 14.9 µM and 18.6 µM | GI50 (T-47D breast): 23.8 µM | TGI (T-47D breast): 50 µM and > 100 µM | GI50 (UO-31 renal): 2.9 µM

COC(=O)C1CC(OC(C)=O)C=C2C(=O)CCC21 (stereo unspecified)
TGI (786-0 renal): 51 µM | TGI (A498 renal): > 100 µM | TGI (ACHN renal): 46.3 µM | TGI (DMS 273 small cell lung): 43.8 µM | TGI (KM20L2 colon): 70.1 µM | TGI (NCI-H226 lung): > 100 µM | TGI (SK-MEL-5 melanoma): 67.9 µM | TGI (UO-31 renal): 80.3 µM

CCOC(=O)C1=C(C)N(NC(N)=O)C2(N)N(NC(N)=O)C(C)=C(C(=O)OCC)C12C(=O)OCC (stereo unspecified)
TGI (786-0 renal): > 100 µM | TGI (A498 renal): > 100 µM | TGI (ACHN renal): > 100 µM | TGI (DMS 273 small cell lung): > 100 µM | TGI (KM20L2 colon): > 100 µM | TGI (NCI-H226 lung): > 100 µM | TGI (SK-MEL-5 melanoma): > 100 µM | TGI (UO-31 renal): > 100 µM

COC1CCC(OC)C(C2(C3CC(OC)CCC3OC)OC(=O)c3ccccc32)C1 (stereo unspecified)
TGI (786-0 renal): > 100 µM | TGI (A498 renal): > 100 µM | TGI (ACHN renal): > 100 µM | TGI (DMS 273 small cell lung): > 100 µM | TGI (KM20L2 colon): > 100 µM | TGI (NCI-H226 lung): > 100 µM | TGI (SK-MEL-5 melanoma): > 100 µM | TGI (UO-31 renal): > 100 µM

Cc1cc(C)c(C(=O)O)c(SSc2cc(C)cc(C)c2C(=O)O)c1
TGI (786-0 renal): > 100 µM | TGI (A498 renal): > 100 µM | TGI (ACHN renal): > 100 µM | TGI (DMS 273 small cell lung): > 100 µM | TGI (KM20L2 colon): > 100 µM | TGI (NCI-H226 lung): > 100 µM | TGI (SK-MEL-5 melanoma): > 100 µM | TGI (UO-31 renal): > 100 µM

O=C(Nc1ccccc1-c1nn(CN2CCNCC2)c(=S)n(CN2CCNCC2)c1=O)C(F)(F)F
TGI (786-0 renal): 35.1 µM | TGI (A498 renal): 35.3 µM | TGI (ACHN renal): 63.9 µM | TGI (DMS 273 small cell lung): 35.3 µM | TGI (NCI-H226 lung): 40.7 µM | TGI (SK-MEL-5 melanoma): 31 µM | TGI (UO-31 renal): 32.6 µM

CO[C@H]1C[C@](C)(O)Cc2cc3c(c(O)c21)C(=O)c1c(O)cc2c(c1C3=O)O[C@@H]1O[C@@]2(C)[C@H](O)[C@@H](N(C)C)[C@@H]1O
GI50 (786-0 renal): 0.302 µM | TGI (786-0 renal): 1.8 µM and 2.18 µM | GI50 (A498 renal): 1.66 µM | TGI (A498 renal): 7.95 µM and 5.14 µM | GI50 (ACHN renal): 0.107 µM | TGI (ACHN renal): 1.31 µM and 1.9 µM | GI50 (DMS 273 small cell lung): 0.188 µM | TGI (DMS 273 small cell lung): 2.79 µM and 3.32 µM | GI50 (KM20L2 colon): 1.74 µM | TGI (KM20L2 colon): 5.01 µM and 17.2 µM | TGI (MCF7 breast): 8.86 µM | TGI (NCI-H226 lung): 3.26 µM and 5.15 µM | TGI (SK-MEL-5 melanoma): 3.17 µM and 10.2 µM | TGI (T-47D breast): 17.4 µM | GI50 (UO-31 renal): 1.33 µM | TGI (UO-31 renal): 2.85 µM and 7.08 µM

COc1ccc2oc(-c3ccc(OC)c(OC)c3OC)cc(=O)c2c1
TGI (786-0 renal): > 100 µM | TGI (ACHN renal): > 100 µM | TGI (KM20L2 colon): 63.1 µM | TGI (NCI-H226 lung): 81.1 µM

CC(C)c1cccc(O)c(=O)c1
GI50 (786-0 renal): 5.54 µg/mL | TGI (786-0 renal): > 75 µg/mL and > 100 µM | TGI (A498 renal): > 100 µM | GI50 (ACHN renal): 1.75 µg/mL | TGI (ACHN renal): 18.3 µg/mL and 48.9 µM | TGI (DMS 273 small cell lung): > 48.4 µM | TGI (KM20L2 colon): > 100 µM | GI50 (MCF7 breast): 1.46 µg/mL | TGI (MCF7 breast): 5.08 µg/mL | TGI (NCI-H226 lung): 50.1 µM | GI50 (SK-MEL-5 melanoma): 1.35 µg/mL | GI50 (T-47D breast): 0.0075 µg/mL | TGI (T-47D breast): 0.0075 µg/mL | GI50 (UO-31 renal): 2.58 µg/mL | TGI (UO-31 renal): 35.5 µg/mL and > 71.1 µM

CCC1(OC(=O)CN)C(=O)OCc2c1cc1n(c2=O)Cc2cc3ccccc3nc2-1 (stereo unspecified)
GI50 (786-0 renal): 0.00563 µM | TGI (786-0 renal): 0.194 µM and 0.161 µM | GI50 (A498 renal): 0.0129 µM | TGI (A498 renal): 0.159 µM and 0.559 µM | GI50 (ACHN renal): 0.00476 µM | TGI (ACHN renal): 0.183 µM and 0.0628 µM | GI50 (KM20L2 colon): 0.056 µM | GI50 (MCF7 breast): 0.0251 µM | GI50 (NCI-H226 lung): 0.0151 µM | TGI (NCI-H226 lung): 0.15 µM and 0.0638 µM | GI50 (SK-MEL-5 melanoma): 0.0187 µM and < 0.0128 µM | TGI (SK-MEL-5 melanoma): 0.107 µM and 0.0329 µM | GI50 (T-47D breast): 0.0426 µM | TGI (T-47D breast): 0.916 µM | TGI (UO-31 renal): 0.174 µM

O=CN1N=C(c2cccc(Nc3ccnc4cc(Cl)ccc34)c2)CC1c1ccccc1 (stereo unspecified)
GI50 (786-0 renal): 0.543 µM | TGI (786-0 renal): 18 µM | GI50 (A498 renal): 0.23 µM | TGI (A498 renal): 1.1 µM | GI50 (ACHN renal): 0.778 µM | TGI (ACHN renal): > 79.4 µM | GI50 (MCF7 breast): 0.311 µM | TGI (MCF7 breast): > 33 µM | GI50 (NCI-H226 lung): 3.32 µM | TGI (NCI-H226 lung): > 55.7 µM | GI50 (SK-MEL-5 melanoma): 0.315 µM | TGI (SK-MEL-5 melanoma): 2.02 µM | GI50 (T-47D breast): 0.381 µM | TGI (T-47D breast): 9.59 µM | GI50 (UO-31 renal): 0.408 µM | TGI (UO-31 renal): > 100 µM

CC1(C)OC(=O)C(C#N)=C1C[n+]1ccccc1
TGI (786-0 renal): > 10 µM | TGI (A498 renal): > 10 µM | TGI (ACHN renal): > 10 µM | TGI (MCF7 breast): > 10 µM | TGI (NCI-H226 lung): > 10 µM | TGI (SK-MEL-5 melanoma): > 10 µM | TGI (T-47D breast): > 10 µM | TGI (UO-31 renal): > 10 µM

COc1ccc(/C=C2\SC(=Nc3ccccc3)NC2=O)cc1
GI50 (786-0 renal): 8.25 µM | TGI (786-0 renal): 30.1 µM | GI50 (A498 renal): 1.08 µM | TGI (A498 renal): 7.34 µM | GI50 (ACHN renal): 5.53 µM | TGI (ACHN renal): 48.5 µM | GI50 (MCF7 breast): 2.68 µM | TGI (MCF7 breast): 42.1 µM | GI50 (NCI-H226 lung): 13.8 µM | TGI (NCI-H226 lung): > 100 µM | GI50 (SK-MEL-5 melanoma): 7.63 µM | TGI (SK-MEL-5 melanoma): 30.5 µM | GI50 (T-47D breast): 6.46 µM | TGI (T-47D breast): > 100 µM | GI50 (UO-31 renal): 6.97 µM | TGI (UO-31 renal): > 100 µM

NCCNC(=O)c1cccc2cc3ccccc3nc12
TGI (786-0 renal): > 68.4 µM | TGI (A498 renal): 5.88 µM | TGI (DMS 273 small cell lung): > 100 µM | TGI (KM20L2 colon): 12.5 µM | TGI (NCI-H226 lung): 3.61 µM | TGI (SK-MEL-5 melanoma): > 23.2 µM | TGI (UO-31 renal): > 28.5 µM
